Broadly, the melting point is the temperature, or range, at which the solid turns liquid.

Like-named read-outs stand apart in the source and are kept apart here. Where only a bound is given, the exact number is not on record here.

Data set [1] deals with P. aeruginosa PA14 col^R 5 (colistin-resistant strain). Briefly: microbe, parasite or virus in culture. The conditions noted are these: for IC90: read-out: IC90, synergy with colistin (8 μg/ml). In kind it is cell-based. Here is the method: The compounds identified by in silico screening were tested for their antibacterial activity (in the absence of colistin) and for their synergistic or adjuvant activity with colistin against a colistin-resistant strain of P. aeruginosa grown in the absence or presence of a sub-inhibitory concentration of colistin (8 μg/ml).
This strain over-expresses the am genes responsible for the modification of lipopolysaccharide by the addition of L-amino-arabinose.
The strain was grown in Mueller-Hinton (MH) medium for 8 hours, and inoculated at a cell density of ˜10^6/ml in MH medium supplemented or not with colistin at a concentration of 16 μg/ml. […] The microtitration plates were incubated at 37° C. without stirring for 24 hours. Bacterial growth was assessed by measuring absorbance at 600 nm (A600) in a microplate reader (Victor 2^V, Perkin-Elmer). […] For each compound three independent experiments were conducted, and the averages of the values obtained in the three experiments are considered to determine the values of IC50 e IC90.

For data set [2] the test system is unchanged. Briefly: Checkerboard assay compound/colistin. Type of data set: cell-based. Here is the method:
The checkerboard essays were performed in microtiter plates with 96 wells, aliquoting in each column of wells 50 μl of MH medium containing decreasing concentrations of colistin (dilutions in reason of 2 from 384 to 1.5 μg/ml) or without colistin, and in each row of wells further 50 μl of MH medium containing decreasing concentrations of compound of interest (dilutions in reason 2 from […]) or without compound. Finally, 50 μl of the inoculum of the PA14 col^R 5 strain were added to each well at a concentration of ˜1.5×10^6 cells/ml in MH medium, so as to reach a final volume of 150 μl, a bacteria concentration equal to […], colistin concentrations in the range 0-128 μg/ml and concentrations of compounds of interest in the range 0-125 μM. Plates were incubated at 37° C. without shaking for 24 hours, and bacterial growth was assessed by measuring the A600 in a microplate reader (Victor 2^V, Perkin-Elmer). Three independent experiments were conducted for each compound, and the averages of the values obtained in the three experiments were considered to determine the IC90 values.

Data set [3] has as its system P. aeruginosa strains resistant and sensitive to colistin. Nature of the data set: MIC of colistin in presence of BBN149 or DMSO, P. aeruginosa strains. Type of data set: cell-based. The conditions noted are these: for MIC of colistin with 0.6% DMSO as a control: colistin without BBN149. Here is the method: (§1) All the colistin-resistant strains used depend on the aminoarabinosylation of lipid A as a mechanism of resistance to colistin (Lo Sciuto e Imperi, 2018; Esposito et al., 2018). […] MIC essays were performed in 96-well microtitration plates, using previously characterized P. aeruginosa and K. pneumoniae strains (Lo Sciuto e Imperi, 2018; Esposito et al., 2018). […] At least three independent experiments were conducted for each strain.

In data set [4] the test system is colistin-resistant clinical strains of Klebsiella pneumoniae. Nature of the data set: MIC of colistin in presence of BBN149 or DMSO, K. pneumoniae clinical strains. In kind it is cell-based. The conditions noted are these: for MIC of colistin with 0.6% DMSO as a control: colistin without BBN149. Here is the method: as §1
For data set [5], the system named is 16HBE cells (human epithelial cells of bronchial origin). Nature of the data set: Cell viability test (MTT reduction).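 On all read-outs here: formazan absorbance at 570 nm after MTT reduction, corrected for cell-free blank wells, reported relative to untreated cells, from duplicate wells over three independent repeats.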 The note with it: for reduction in cell viability: highest concentration (250 μM). (Tetrazolium assays rely on reduction of a dye to a coloured formazan, in cell work by metabolically active cells.)
Experimental: The cytotoxic potential of the compounds was evaluated on cell cultures in vitro. […] The results are reported in the table as viability (%) compared to untreated cells (Table 4).
To evaluate the cytotoxic potential of the compounds under examination, the MTT (3-(4,5-dimethylthiazol-2-yl)-2,5-diphenyltetrazolium) reduction test, commonly used to monitor cell viability was used following the exposure to potentially cytotoxic agents. The essay is based on the reduction of MTT to formazan, a compound that assumes a blue colour which can be evaluated by spectrophotometric reading at a wavelength of 570 nm. For the essay we used the 16HBE cell line. […] Each test was performed in duplicate and three independent replicas were made.
Cell viability was calculated as follows:
COD570=OD570 of sample−OD570 of wells without cells (white)
Viability=100−reduction (%)
where: NT indicates the samples of cells non-threated with the compounds; T the samples of cells treated with the compounds at the different concentrations.
The mean cell viability values were calculated using the Excel mean and standard deviation functions.
Setting [6] is: Pseudomonas aeruginosa, PA14, 24 h, read-out: IC50 without colistin.
[7] abbreviates: compound ≥31 μM, MIC 64 to 8 μg/ml, PA14 col^R 5.
The mark [8] stands for this setting: 16HBE, 1.95 μM, 18 hours, MTT, vs untreated cells.
The mark [9] stands for this setting: 16HBE, 3.91 μM, 18 hours, MTT, vs untreated cells.
The mark [10] stands for this setting: 16HBE, 7.81 μM, 18 hours, MTT, vs untreated cells.
[11] abbreviates: 16HBE, 15.63 μM, 18 hours, MTT, vs untreated cells.
[12] abbreviates: 16HBE, 62.5 μM, 18 hours, MTT, vs untreated cells.
The mark [13] stands for this setting: 16HBE, 125 μM, 18 hours, MTT, vs untreated cells.
Where [14] appears, read: 16HBE, 250 μM, 18 hours, MTT, vs untreated cells.
Setting [15] is: 16HBE, 31.25 μM, 18 hours, MTT, vs untreated cells.
Setting [16] is: PA14 ColR5, colistin 8 μg/ml (sub-inhibitory), minimum concentration causing at least 90% growth inhibition, 24 h.

Turning to `C[C@]12C=C[C@@]3(CC[C@@H]4[C@@](C)(COC(=O)C(=O)O)CCC[C@@]4(C)[C@@H]3CC1)C2` [BBN149, ent-beyer-15-en-18-O-oxalic acid], the IC50 in data set [1] (Pseudomonas aeruginosa, PA14, 24 h, read-out: IC50, synergy with colistin (8 μg/ml)) was 15.6 µM; in data set [1] (setting [6]), more than 250 µM. Moreover, the IC90 in data set [1] (Pseudomonas aeruginosa, PA14, 24 h) was 31.2 µM. In data set [1] (colistin 8 μg/ml), the “inhibition of bacterial growth in the presence of colistin” value is “able to inhibit bacterial growth in the presence of colistin”. Further, the “antibacterial activity per se” value in data set [1] (in the absence of colistin) is “none of the compounds showed antibacterial activity per se”. Further, the “reduction of MIC of colistin (times)” value in data set [2] was determined as 4 times; in data set [2] (setting [7]) it was 8 times. The “concentration of compound reducing MIC of colistin by 4 times” value in data set [2] (MIC of colistin 64 to 16 μg/ml, PA14 col^R 5) is not below 16 µM. Further, in data set [3] (60 μM BBN149, colistin-sensitive P. aeruginosa strains), the “activity on colistin-sensitive strains” value is recorded as “no relevant activity”. Moreover, the “MIC of colistin in the presence of 60 μM BBN149” value (“MIC … of 60 μM BBN149” for short) was found to be 1 µg/mL in data set [3] (strain KK1); 8 µg/mL in data set [3] (strain KK1 col^R 1); 1 µg/mL in data set [3] (strain KK27); 4 µg/mL in data set [3] (strain KK27 col^R 6); 1 µg/mL in data set [3] (strain PA14); 8 µg/mL in data set [3] (strain PA14 col^R 5). Moreover, the “MIC … of 60 μM BBN149” value in data set [3] (strain TR1) is 1 µg/mL; in data set [3] (strain TR1 col^R 6) it was 4 µg/mL; in data set [4] (strain KP-Mo-3), 16 µg/mL; in data set [4] (strain KP-Mo-5) it was 8 µg/mL; in data set [4] (strain KP-Mo-6), 4 µg/mL; in data set [4] (strain KP-Mo-11), 8 µg/mL. The “MIC … of 60 μM BBN149” value in data set [4] (strain KP-Mo-16) is 8 µg/mL. For the same compound, the “Average percentage of cell viability (±standard deviation)” value in data set [5] came to 86.07 ± 5.30%; in data set [5] (setting [8]), 94.15 ± 6.34%; in data set [5] (setting [9]) it was 90.17 ± 7.35%; in data set [5] (setting [10]), 86.13 ± 2.37%; in data set [5] (setting [11]) it was 90.80 ± 6.31%; in data set [5] (setting [12]), 76.33 ± 2.65%. For the same compound, the “Average percentage of cell viability (±standard deviation)” value in data set [5] (setting [13]) is on record as 71.99 ± 5.18%; in data set [5] (setting [14]), 65.51 ± 4.05%.

On to `C[C@@]12CCC3[C@@](CCC4[C@@](C)(COC(=O)C(=O)O)CCC[C@]43C)(CC1)C2` (stereo partly drawn) [FDO-H, ent-beyeran-18-O-oxalic acid], for which the IC50 in data set [1] (setting [6]) was less than 250 µM; in data set [1] (read-out: IC50, synergy with colistin (8 μg/ml), PA14 ColR5, colistin 8 μg/ml (sub-inhibitory), minimum concentration causing at least 50% growth inhibition, 24 h), 7.81 µM. Also, in data set [2], the “concentration of compound reducing MIC of colistin by 4 times” value is not below 4 µM. Further, the “reduction of MIC of colistin (times)” value in data set [2] (compound ≥4 μM, PA14 col^R 5) was 4 times; in data set [2] (setting [7]) it was 8 times. The “Average percentage of cell viability (±standard deviation)” value is 106.31 ± 17.23% in data set [5] (setting [8]); 94.57 ± 12.67% in data set [5] (setting [9]); 100.25 ± 23.84% in data set [5] (setting [10]); 94.06 ± 3.88% in data set [5] (setting [11]); 93.65 ± 11.27% in data set [5] (setting [15]); 97.14 ± 12.19% in data set [5] (setting [12]). The figures for the “Average percentage of cell viability (±standard deviation)” value in data set [5] (setting [13]) and in data set [5] (setting [14]) were 98.42 ± 16.71% and 76.51 ± 12.64%, respectively.

In turn, `C[C@@]12CCC3[C@@](CCC4[C@@]3(C)CCC[C@@]4(C)C(=O)OC3OC(CO)C(O)C(O)C3O)(CC1)C2` (stereo partly drawn) [SR4, glucopyranosyl β-D ester of ent-beyeran-19-oic acid] showed a melting point of 160 °C. Also, the IC50 in data set [1] (setting [6]) is more than 250 µM. Besides, the IC90 in data set [1] (setting [16]) is more than 250 µM. Besides, the “concentration of compound reducing MIC of colistin by 4 times” value in data set [2] was 125 µM. In addition, the “reduction of MIC of colistin (times)” value in data set [2] (compound 125 μM only, PA14 col^R 5) came to 4 times. The “Average percentage of cell viability (±standard deviation)” value in data set [5] (setting [8]) came to 96.35 ± 9.42%. Further, the “Average percentage of cell viability (±standard deviation)” value in data set [5] (setting [9]) is 92.31 ± 3.26%. Further, the “Average percentage of cell viability (±standard deviation)” value in data set [5] (setting [10]) turned out to be 92.44 ± 2.11%. In data set [5] (setting [11]), the “Average percentage of cell viability (±standard deviation)” value came to 97.27 ± 5.61%. Further, the “Average percentage of cell viability (±standard deviation)” value in data set [5] (setting [15]) turned out to be 101.69 ± 4.39%. Besides, in data set [5] (setting [12]), the “Average percentage of cell viability (±standard deviation)” value was 99.27 ± 2.43%. The “Average percentage of cell viability (±standard deviation)” value in data set [5] (setting [13]) amounted to 106.23 ± 5.52%. Also, in data set [5] (setting [14]), the “Average percentage of cell viability (±standard deviation)” value was −1.11 ± 2.02%. Further, the “reduction in cell viability” value in data set [5] (16HBE, 18 hours) is “total reduction of cell viability”.

Turning to `C[C@@]12CCC3[C@@](CCC4[C@@]3(C)CCC[C@@]4(C)C(=O)O)(CC1)C2` (stereo partly drawn) [SR10, ent-beyeran-19-oic acid], the IC50 in data set [1] (setting [6]) is more than 250 µM. Moreover, the IC90 in data set [1] (setting [16]) was more than 250 µM. Besides, the “Average percentage of cell viability (±standard deviation)” value in data set [5] stood at 99.52 ± 9.52%; in data set [5] (setting [8]) it was 105.21 ± 6.73%; in data set [5] (setting [9]) it was 104.95 ± 6.36%; in data set [5] (setting [10]) it was 101.00 ± 7.12%; in data set [5] (setting [11]), 97.98 ± 1.66%; in data set [5] (setting [12]), 99.80 ± 4.30%. Moreover, the “Average percentage of cell viability (±standard deviation)” value in data set [5] (setting [13]) is listed as 92.07 ± 5.47%; in data set [5] (setting [14]) it was 1.47 ± 2.29%. Moreover, in data set [5] (16HBE, 18 hours), the “reduction in cell viability” value is recorded as “total reduction of cell viability”.

For colistin [reference compound], the “MIC of colistin with 0.6% DMSO as a control” value (from here on “MIC of colistin with 0.6% DMSO”) in data set [3] (strain KK1) was found to be 0.5 µg/mL; in data set [3] (strain KK1 col^R 1) it was 128 µg/mL; in data set [3] (strain KK27), 0.5 µg/mL; in data set [3] (strain KK27 col^R 6) it was 64 µg/mL; in data set [3] (strain PA14), 0.5 µg/mL; in data set [3] (strain PA14 col^R 5), 64 µg/mL. Further, the “MIC of colistin with 0.6% DMSO” value is 0.5 µg/mL in data set [3] (strain TR1); 16 µg/mL in data set [3] (strain TR1 col^R 6); 128 µg/mL in data set [4] (strain KP-Mo-3); 128 µg/mL in data set [4] (strain KP-Mo-5); 32 µg/mL in data set [4] (strain KP-Mo-6); 64 µg/mL in data set [4] (strain KP-Mo-11). Besides, in data set [4] (strain KP-Mo-16), the “MIC of colistin with 0.6% DMSO” value worked out at 64 µg/mL.

These data come from patent US20220259249A1, “INHIBITORS OF ANTIBIOTIC RESISTANCE MEDIATED BY ARNT” (priority 2019, published 2022).
